# Data: patent US11337971B2, “Dopamine D3 receptor selective antagonists/partial agonists and uses thereof” (THE UNITED STATES OF AMERICA, AS REPRESENTED BY THE …, priority 2018, dated 2022)
# “And” between values parts separate entries of the source, which are not always exact repeats. Equal values may be shown once. Read-outs that look alike come from different tables or passages of the source.
# Target: human D3R (Homo sapiens (Human), UniProt P35462)
# Experiment: Radioligand competition binding, [3H]N-methylspiperone, HEK293 membranes expressing human D3R
# Conditions: read-out: D3R Ki ± SEM
# In short: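 HEK293 membranes (10 μg protein) incubated 1 h at room temperature in EBSS with 0.2 mM sodium metabisulfite, 0.4 nM [3H]N-methylspiperone and compound (10 μM to 10 pM, triplicate). Nonspecific binding defined with 10 μM butaclamol; GF/B filtration.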
# Sequence of human D3R (P35462 whole entry): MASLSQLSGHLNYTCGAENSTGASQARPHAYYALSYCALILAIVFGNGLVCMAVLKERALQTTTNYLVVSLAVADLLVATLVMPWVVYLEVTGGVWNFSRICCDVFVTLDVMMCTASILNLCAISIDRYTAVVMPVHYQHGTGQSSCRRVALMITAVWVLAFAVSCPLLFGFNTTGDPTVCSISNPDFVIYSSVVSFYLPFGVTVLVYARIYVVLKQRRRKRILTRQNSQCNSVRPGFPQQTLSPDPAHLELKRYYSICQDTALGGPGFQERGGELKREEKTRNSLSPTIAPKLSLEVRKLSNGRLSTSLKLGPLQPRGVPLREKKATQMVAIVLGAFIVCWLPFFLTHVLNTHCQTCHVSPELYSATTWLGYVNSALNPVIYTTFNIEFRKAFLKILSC
structure (smiles),measurement,setting,value
"CCc1cc(Cl)c(OC)c(N2CCN(CC(O)CCNC(=O)c3cc4ccccc4[nH]3)CC2)c1 (racemic) [Compound 29, N-(4-(4-(3-chloro-5-ethyl-2-methoxyphenyl)piperazin-1-yl)-3-hydroxybutyl)-1H-indole-2-carboxamide]",Ki,"Table 1B, [3H]-N-methylspiperone competition, 96-well plates",7 nM and 6.84 nM
same,Ki,Table 1C,7.61 ± 1.17 nM
